Measurements taken from article PMC3836994, “Killer Bee Molecules: Antimicrobial Peptides as Effector Molecules to Target Sporogonic Stages of Plasmodium” (PLoS Pathogens, 2013).
No end group written: not given here.

Experiments:
[1] = test system: An. gambiae (Mali strain); test: Mosquito oviposition after blood feed containing AMP; format: in vivo, Anopheles gambiae; details: for Significance of effect on oviposition: 50 µM AMP, one-way ANOVA, peptide vs control; for Mean no. of eggs laid per mosquito, peptide: after first feed with 50 µM AMP, eggs laid over two nights, averaged per surviving mosquito, 3 or 4 replicates
Method: (§1) Female An. gambiae (Mali strain, 3–5 days old) were used to establish the effects of AMPs on mosquito longevity and fecundity in the absence of confounding factors introduced with parasite infection. Two hundred 3–6 day old females were fed on human O+ whole blood supplemented with 50 µM AMP (or water control, 1 ml total volume) via feeding chambers of a Hemotek membrane feeding system. Fully engorged mosquitoes were randomly moved into four separate cages, each containing 25 mosquitoes, to facilitate monitoring. Mortality rates were recorded daily for a 10-day period, and oviposition sites were provided on the second and third night post-feeding. A second blood feed containing the same AMP was administered 7 days later to mimic the likelihood that mosquitoes would feed at least twice in the field during the development of sporogonic stages of the malaria parasite. Oviposition sites were again provided to assess fecundity through the number of eggs laid as an average per surviving mosquito. Assays for each AMP were repeated in triplicate on separate generations of mosquitoes. Due to egg retention under experimental conditions, egg production is best measured by dissecting mosquitoes that have not been provided with an oviposition site. However, this is not a feasible method of determining fecundity when longevity is also being measured.

[2] = test system: An. gambiae (Mali strain); test: Mosquito longevity after blood feeds containing AMP; format: in vivo, Anopheles gambiae; details: 50 µM AMP in blood on days 0 and 7; extended to 30 days
[3] = test system: P. falciparum; test: Field P. falciparum from gametocyte carriers membrane-fed to An. gambiae (Mali); format: in vivo, Plasmodium falciparum; details: 50 µM; for Oocyst prevalence (oocyst positive mosquitoes), peptide: blood of gametocyte carriers, progeny of field An. gambiae; for Oocyst intensity (mean number of oocysts per gut, range in parentheses), peptide: field parasites and mosquitoes
[4] = test system: An. gambiae (Mali strain); test: Mosquito longevity after blood feeds containing AMP; format: in vivo, Anopheles gambiae; details: for Significance of effect on longevity over 10 days: 50 µM AMP, Kaplan-Meier, Wilcoxon, peptide vs control; for Percent alive, peptide: over 10 days, 50 µM AMP in human blood, feeds on days 0 and 7, 3 or 4 replicates
Method: as §1

[5] = test system: P. berghei; test: P. berghei infections in Anopheles stephensi (oocyst prevalence and intensity); format: in vivo, Plasmodium berghei; details: for Prevalence (proportion of infected mosquitoes), peptide: 50 µM peptide in gametocytaemic mouse blood fed to An. stephensi; for Intensity (mean number of oocysts, range in parentheses), peptide: 50 µM peptide, An. stephensi
Method: To assess the effects of AMPs on parasites in vivo, mouse blood containing P. berghei gametocytes was obtained by cardiac puncture and 475 µl was rapidly mixed with 25 µl (50 µM final concentration) of AMP. This mixture was fed to 100 nulliparous 3–5 day old female An. stephensi. A further 475 µl of blood from the same infection was mixed with 25 µl of distilled water to act as a control. Mosquitoes were maintained at 19°C for optimum parasite development. Between 30 and 50 mosquitoes were dissected after 10 days. Mosquito wing length, numbers of retained eggs and oocysts were recorded in triplicate experiments carried out on different mosquito cohorts.

[6] = test system: Anopheles gambiae Sua 4.0 cells; test: Sua 4.0 mosquito cell growth (cell counts); format: cell-based; details: 25 µM AMP; for Average number of cells over 3 replicates, peptide: seeded 30×10^4/ml, mean of 3 experiments
Method: To establish potential effects of AMPs on mosquito cells, the An. gambiae Sua 4.0 cell line was used. This facilitated an initial high-throughput screening and provided insights into AMP toxicity, mode of action (lytic or other) and speed of action. Sua 4.0 cells were maintained at 27°C in Schneider's insect medium supplemented with 10% FBS (foetal bovine serum) in T25 culture flasks (Fisher, UK).
Each AMP was tested separately to establish if it affected cell viability and growth. […] Cells were maintained for 3, 6, 24 or 48 h, after which they were resuspended and a sub-sample from duplicate wells counted using a haemocytometer. To establish cell viability after 48 h (whether simply arrested in development or non-viable), resuspended cells were added to an equal volume of 5% erythrosin B vital dye and viable cells excluding the stain were counted. The viability of 100 cells in triplicate wells was recorded. Each AMP assay was performed in triplicate and included a negative control minus the peptide (5 µl of water alone added to the medium) and a further control of 5 µl of 10% SDS (sodium dodecyl sulphate) substituted for the AMP as this causes 100% cell lysis.

[7] = 3 hrs in culture, haemocytometer count of duplicate wells

| Sequence | Significance of effect on oviposition [1] | Mean no. of eggs laid per mosquito, peptide [1] | Effect on longevity over 30 days (in words) [2] | Oocyst prevalence (oocyst positive mosquitoes), peptide ([3]; Replicate 1) | Oocyst intensity (mean number of oocysts per gut, range in parentheses), peptide ([3]; Replicate 1) | Oocyst prevalence (oocyst positive mosquitoes), peptide ([3]; Replicate 2) | Oocyst intensity (mean number of oocysts per gut, range in parentheses), peptide ([3]; Replicate 2) | Significance of effect on longevity over 10 days [4] | Percent alive, peptide [4] | Prevalence (proportion of infected mosquitoes), peptide ([5]; Replicate 1) | Intensity (mean number of oocysts, range in parentheses), peptide ([5]; Replicate 1) | Prevalence (proportion of infected mosquitoes), peptide ([5]; Replicate 2) | Intensity (mean number of oocysts, range in parentheses), peptide ([5]; Replicate 2) | Prevalence (proportion of infected mosquitoes), peptide ([5]; Replicate 3) | Intensity (mean number of oocysts, range in parentheses), peptide ([5]; Replicate 3) | Reduction in cell number (compared to control) ([6]; 3 hrs in culture) | Average number of cells over 3 replicates, peptide [6, 7] | Reduction in cell number (compared to control) ([6]; 24 hrs in culture) | Average number of cells over 3 replicates, peptide ([6]; 24 hrs in culture) | Reduction in cell number (compared to control) ([6]; 48 hrs in culture) | also measured |
| --- | --- | --- | --- | --- | --- | --- | --- | --- | --- | --- | --- | --- | --- | --- | --- | --- | --- | --- | --- | --- | --- |
| AGYLLGKINLKALAALAKKILGGAGYLLGKINLKALAALAKKIL [TP10 dimer, TP10 (dimer)] | N/S | 25 | significant reduction in survivorship | 9% (58) | <1 (0–4) | 3% (38) | <1 (0–1) | N/S | 76% | 56% (50) | 2 (0–84) | 66% (50) | 4 (0–67) | 56% (50) | 2 (0–13) | 20% | 240000 mL⁻¹ | 42% | 250000 mL⁻¹ | 58% | Oocyst prevalence (oocyst positive mosquitoes), peptide ([3]; Replicate 3): 20% (49); Oocyst intensity (mean number of oocysts per gut, range in parentheses), peptide ([3]; Replicate 3): <1 (0–2); Average number of cells over 3 replicates, peptide ([6]; 48 hrs in culture): 260000 mL⁻¹ |
| KFPKFRRGIPFLFVGPSGKFPKFRRGIPFLFV [Vida 3 dimer] | N/S | 43 | no significant long-term effects on longevity | 3% (63) | <1 (0–1) | 0% (45) | 0 | N/S | 68% | 33% (40) | 1 (0–6) | 80% (50) | 37 (0–271) | 76% (50) | 4 (0–67) | 7% | 280000 mL⁻¹ | 62% | 170000 mL⁻¹ | 72% | Reduction in cell number (compared to control) ([6]; 24 hrs in culture, listed as Vida3 dimer): 62%; Average number of cells over 3 replicates, peptide ([6]; 48 hrs in culture): 190000 mL⁻¹ |
